Assay results: US6376169B1, “Method for diagnosing a vascular condition” (Queens University at Kingston, priority 1998, dated 2002)
“Also recorded” adds a separate entry of the source. Structures can show the parent of a compound that is named as a salt. Where two headings read alike, the source gives them in different places.

Columns and labels:
RTP/Drg1 mRNA = assay: Northern blot of RTP/Drg1 mRNA in MDA-MB-231 cells; format: cell-based, human; settings: 20% oxygen, up to 72 h; 100 μM cobalt chloride, 30 mM Tiron or 100 μM DFO
Description: (§1) To determine whether hypoxia regulates the expression of certain genes (e.g., PAI-1, uPAR, RTP/Drg1) via an iron-containing heme protein, cells were cultured for up to 72 h at 20% oxygen in the presence or absence of either 100 μM cobalt chloride, or 30 mM sodium 4,5-dihydroxybenzene-1,3-disulfonate (Tiron), or 100 μM desferrioxamine mesylate (DFO) (Sigma Chemical CO., St. Louis, Mo.). Further confirmation of the role of a heme protein in hypoxic responses can be achieved by culturing cells under hypoxia in the presence of carbon monoxide, which maintains the heme protein in the oxy state and thereby blocks heme protein-mediated hypoxic responses. Thus, cells were also cultured for 24 h at 37° C. under hypoxic conditions in the presence of 30% carbon monoxide.
Northern Blot Analysis. Total RNA was isolated from cell lines as described above. Aliquots of 20 μg were denatured and subjected to electrophoresis in 1% agarose-formaldehyde gels (Sambrook, J., Fritsch, E. F., and Maniatis, T. Molecular Cloning: A Laboratory Manual, Cold Spring Harbor Laboratory, Cold Spring Harbor, N.Y. (1989)). RNA was transferred to nylon membranes (Micron Separations, Inc., Westboro, Mass.). After prehybridization at 42° C. for 2-3 h in 50% formamide, 5×Denhardt's solution, 0.5% sodium dodecyl sulfate (SDS), 6×SSC (1×SSC: 0.15M NaCl, 15 mM sodium citrate, pH 7.0), and 100 μg/mL denatured salmon sperm DNA, membranes were hybridized for a period of time of overnight (˜18 h) to about 72 h at 42° C. with a cDNA probe (e.g., RTP/Drg1, PAI-1 (PAI-1 cDNA provided by Dr. Keith McCrae, Temple University School of Medicine, Philadelphia, Pa.), uPAR (Higazi A, et al., J Biol Chem 266:12752, (1995)) pre-labeled with [^32P]-dCTP using a Pharmacia Oligolabelling kit (Pharmacia Biotech, Piscataway, N.J.). The hybridization solution contained 6×SSC, 0.5% SDS, 100 μg/mL denatured salmon sperm DNA, 50% formamide and cDNA probe. After hybridization, the membranes were washed with 2×SSC and 0.5% SDS at room temperature for 15 min, 2×SSC and 0.1% SDS at room temperature for 15 min, and 0.1×SSC and 0.5% SDS for 30 min. Dupont Reflection NEF film (Dupont Canada, Inc., Mississauga, ON) was exposed to the membranes for 1-3 days at −80° C. Bands on radiographic film were analyzed using a SigmaGel gel analysis software package (Jandel Scientific Software, San Rafael, Calif.).

RTP/Drg1 protein = assay: Western blot of RTP/Drg1 protein in MDA-MB-231 cells; format: cell-based, human; settings: 20% oxygen, up to 72 h; 100 μM cobalt chloride, 30 mM Tiron or 100 μM DFO
Description: as §1
Western Blot Analysis. To examine levels of RTP/Drg1 protein, cells were lysed with buffer containing 40 mM HEPES pH 7.2, 100 mM NaCl, 20% glycerol, 0.1 mM EDTA pH 8.0, 0.2% Triton X-100 (polyoxyethylene (10) isooctylphenyl ether), 1 mM DTT, and 2 mM PMSF, and centrifuged briefly at 4° C. The supernatants were collected and stored at −80° C. until use. SDS-PAGE was performed and resolved proteins were transferred to Immobilon-P membranes (Millipore Corp., Bedford, Mass.) using a semi-dry transfer cell (Bio-Rad Laboratories, Mississauga, ON). Membranes were blocked by incubation overnight at 4° C. in a PBS-buffered solution containing 0.01% Tween 20 (polyoxyethylene(20) sorbitan monolaurate) (PBS-T) and 5% casein. The blots were then incubated with polyclonal rabbit anti-Drg1 antiserum followed by incubation with a peroxidase labeled goat anti-rabbit IgG secondary antibody (Vector Lab. Inc., Burlingame, Calif.). Antigen was detected by enhanced chemiluminescence (ECL, Amersham Canada Inc., Oakville, ON) and exposure of the membrane onto Dupont Reflection NEF film (Dupont Canada, Inc., Mississauga ON).

hepatic cytochromes P450 = settings: literature; cited from earlier work
RTP/Drg1 [1] = settings: endothelial cells treated with homocysteine; cited from earlier work
RTP/Drg1 [2] = settings: A549 cells exposed to nickel; cited from earlier work
[3] = pubertal or adults rats, Kelce et al; cited from earlier work
APO-induced yawns = assay: APO-induced yawning response; format: in vivo, Wistar rats
Description: (§2) The apomorphine (APO) bioassay of erectile function was performed in an isolated area. The rat model of APO-induced erections used to assess the effects of p,p-DDE and flutamide on erectile function was based on the model developed by Heaton et al J Urol. 145:1099 (1991). The animals were each placed in a separate hanging wire test cage in an isolated, dark and sound proof room and allowed to acclimatize to the surroundings for 10 minutes. Each rat received 80 ug/kg APO (Sigma Chemical Co., St. Louis, Mo.) prepared in physiological saline containing […] ascorbic acid via subcutaneous (s.c.) injection (lml/kg at the nape of the neck). Erectile and yawning responses to APO were monitored and recorded (30 minutes) in an adjacent room via a video monitoring system.
(§3) An erection was counted when an engorged glans penis and distal shaft were exposed. A wide opening of the mouth associated with appropriate respiratory movement identified a yawn. […] Rats with unsatisfactory control erectile response were removed from further study.

APO-induced erections = assay: Apomorphine (APO) bioassay of erectile function; format: in vivo, Wistar rats
Description: 16 adult male Wistar rats from Charles River Laboratories (Montreal, Quebec) weighing 300-350 g were used in the investigation. The animals were divided into two study groups. The animals were individually housed in a climate-controlled room under a 12-hour light/dark cycle and allowed access to food (Purina Lab Chow) and water ad libitum. All procedures were in accordance with the guidelines set out by the Canadian Council on Animal Care. The animals were allowed to acclimate 5 days prior to testing and were handled by the researcher during this time.
as §2, with “The rat model of APO-induced erections used to assess the effects of p,p-DDE and flutamide on erectile function was based on the model developed by Heaton et al J Urol. 145:1099 (1991).” left out
as §3
Yawns were not altered in either protocol (data not shown).
The 270 mg/kg dose was prepared, requiring initial heating and stirring. This dose was administered in a single injection (1 ml/kg, i.p. of a 270 mg/ml concentration) half an hour prior to the commencement of APO-induced erectile monitoring.
At one week intervals, rats were given single, increasing doses of flutamide (25, 35, or 50 mg/kg) (Sigma Chemical Co., St. Louis, Mo.). For each dose, flutamide was dissolved in peanut oil and administered via i.p injection in a volume of 1 ml/kg. […] Each dose of flutamide was given 1 week after the previous dose, to allow APO-induced erections to return to control levels.
From the group of 8 rats, 4 rats were randomly selected.
Testosterone was administered in an attempt to recover APO-induced erections to control levels.
The required testosterone concentrations were prepared using 100 mg/ml testosterone propionate (Taro Pharmaceuticals, Brarnalea, ON.) diluted in peanut oil. Each dose was administered in a 1 ml/kg volume.
For each APO testing protocol, the average number of erections and standard deviation was determined. […] Therefore, each rat served as its own control. Treated values were compared to control values using Student's paired t-test, except where noted in Study 2b.

uPAR = settings: vascular endothelial cells; cited from earlier work
uPAR mRNA = assay: Northern blot of uPAR mRNA in HTR-8/SVneo cells; format: cell-based, human; settings: 10 ng/ml VEGF, 24 h, normoxic conditions
Description: as §1, with “Thus, cells were also cultured for 24 h at 37° C. under hypoxic conditions in the presence of 30% carbon monoxide.” left out
Northern Blot Analysis. Total RNA was isolated from cell lines as described above. […] RNA was transferred to nylon membranes (Micron Separations, Inc., Westboro, Mass.). […] The hybridization solution contained 6×SSC, 0.5% SDS, 100 μg/mL denatured salmon sperm DNA, 50% formamide and cDNA probe. After hybridization, the membranes were washed with 2×SSC and 0.5% SDS at room temperature for 15 min, 2×SSC and 0.1% SDS at room temperature for 15 min, and 0.1×SSC and 0.5% SDS for 30 min. Dupont Reflection NEF film (Dupont Canada, Inc., Mississauga, ON) was exposed to the membranes for 1-3 days at −80° C. Bands on radiographic film were analyzed using a SigmaGel gel analysis software package (Jandel Scientific Software, San Rafael, Calif.).

## CC(=O)N(O)CCCCCNC(=O)CCC(=O)N(O)CCCCCNC(=O)CCC(=O)N(O)CCCCCN [DFO, desferrioxamine mesylate]
RTP/Drg1 mRNA
  levels of RTP/Drg1 mRNA: time-dependent increases in RTP/Drg1 mRNA
RTP/Drg1 protein
  levels of RTP/Drg1 protein: time-dependent increases in RTP/Drg1 protein

## CC(C)C(=O)Nc1ccc([N+](=O)[O-])c(C(F)(F)F)c1 [flutamide]
Hepatic cytochromes P450
  metabolism upon administration / absorption: rapidly metabolised by hepatic cytochromes P450

## N[C@@H](CCS)C(=O)O [homocysteine]
RTP/Drg1 [1]
  expression of RTP/Drg1: increased

## [Ni] [nickel]
RTP/Drg1 [2]
  expression of RTP/Drg1: increased

## ClC(Cl)=C(c1ccc(Cl)cc1)c1ccc(Cl)cc1 [p,p-DDE]
[3]
  plasma testosterone levels: did not alter plasma testosterone levels
APO-induced yawns; 500 mg/kg p,p-DDE, two week assessment
  APO-induced yawns: not significantly different from control levels; also recorded: little effect
APO-induced yawns; p,p-DDE treatment, Study 1
  APO-induced yawning responses: not altered
Hepatic cytochromes P450
  metabolism upon administration / absorption: not metabolised
APO-induced erections; 270 mg/kg p,p-DDE i.p., 5 hour testing period, Study 1
  APO-induced erections: no significant effect
APO-induced erections; 500 mg/kg p,p-DDE i.p., 3 hours after administration, Study 1
  APO-induced erectile response: significant decrease
APO-induced erections; 500 mg/kg p,p-DDE vs control and 50 mg/kg flutamide
  APO-induced erectile response two weeks after administration: significantly different from controls and from the flutamide two week response; also recorded: remained significantly lower than controls; also recorded: significantly different from both control and 50 mg/kg flutamide responses
APO-induced erections; single dose 500 mg/kg p,p-DDE, 0.5, 4, 12, 24 hours and 2 weeks, 500 mg/kg
  APO-induced erections, time course: significantly decreased; also recorded: persistently suppressed

## CCC(=O)O[C@H]1CC[C@H]2[C@@H]3CCC4=CC(=O)CC[C@]4(C)[C@H]3CC[C@]12C [testosterone, testosterone propionate]
APO-induced yawns; p,p-DDE treated rats, 12 hour test periods
  APO-induced yawning responses after testosterone supplementation: did not change the status of yawning responses
APO-induced erections; 480 ug/kg, 1.2 or 2.4 mg/kg i.p., 0.5, 4, 12 hours, two weeks after p,p-DDE
  APO-induced erections in p,p-DDE treated rats after testosterone supplementation: no significant increases in erections; also recorded: remained significantly decreased at most of the time points; also recorded: failed to return APO-induced erections to control levels

## VEGF
uPAR
  expression of uPAR: increases the expression of uPAR
uPAR mRNA
  induction of uPAR mRNA: did not result in increased levels of uPAR transcript; also recorded: does not induce
